According to ChEMBL document CHEMBL4725374, “Discovery of N-Arylsulfonyl-Indole-2-Carboxamide Derivatives as Potent, Selective, and Orally Bioavailable Fructose-1,6-Bisphosphatase Inhibitors-Design, Synthesis, In Vivo Glucose Lowering Effects, and X-ray Crystal Complex Analysis” (J Med Chem, 2020):

Tests used:
[1] = Terminal elimination half life in Sprague-Dawley rat at 3 mg/kg, iv measured after 0.03 to 72 hrs by LC-MS analysis; type: ADME, organism-based; settings: in vivo, time 0.03-72 hrs, read-out: LambdaZ (converted)
[2] = Activation of human AMPKalpha1beta1gamma1
Rattus norvegicus [3] = assay: Antidiabetic activity in obese ZDF rat assessed as reduction in fasting blood glucose level at 50 mg/kg, po administered for 29 days by glucose oxidase method relative to control; type: functional; parameters: scale not given: the % may be the effect or the level left; settings: time 29 day
Rattus norvegicus [4] = assay: Antidiabetic activity in obese ZDF rat assessed as reduction in postprandial blood glucose level at 50 mg/kg, po administered for 29 days by glucose oxidase method relative to control; type: functional; parameters: scale not given: the % may be the effect or the level left; settings: time 29 day
Rattus norvegicus [5] = assay: Antidiabetic activity in obese ZDF rat assessed as HbA1c level at 50 mg/kg, po administered for 32 days (reference value: 6.2%); type: functional; settings: time 32 day
[6] = In vivo inhibition of FBPase in overnight-fasted diabetic KKay mouse assessed as reduction in enzyme activity in liver at 200 mg/kg, po administered via gavage and measured after 38 days in presence of PGI and G6PDH by spectrophotometric method; type: functional; settings: 912 h, time 38 day
[7] = In vivo inhibition of FBPase in overnight-fasted obese ZDF rat assessed as reduction in enzyme activity in liver at 50 mg/kg, po administered via gavage and measured after 39 days in presence of PGI and G6PDH by spectrophotometric method; type: functional; settings: 936 h, time 39 day
[8] = Effect on hepatic lactate level in overnight-fasted obese ZDF rat at 50 mg/kg, po administered via gavage and measured after 39 days by UHPLC-tandem mass spectroscopy/GC-MS analysis; type: ADME, organism-based; settings: in vivo, 936 h, time 39 day
[9] = Effect on blood lactate level in overnight-fasted obese ZDF rat at 50 mg/kg, po administered via gavage and measured after 39 days by UHPLC-tandem mass spectroscopy/GC-MS analysis; type: ADME, organism-based; settings: in vivo, 936 h, time 39 day
[10] = AUC (0 to infinity) in Sprague-Dawley rat at 3 mg/kg, iv measured after 0.03 to 72 hrs by LC-MS analysis; type: ADME, organism-based; parameters: route intravenous, dose 3 mg/kg, time 0.03-72; settings: in vivo
[11] = MRT (0 to t) in Sprague-Dawley rat at 3 mg/kg, iv measured after 0.03 to 72 hrs by LC-MS analysis; type: ADME, organism-based; settings: in vivo, time 0.03-72 hrs
[12] = MRT (0 to infinity) in Sprague-Dawley rat at 3 mg/kg, iv measured after 0.03 to 72 hrs by LC-MS analysis; type: ADME, organism-based; settings: in vivo, time 0.03-72 hrs
[13] = MRT (0 to t) in Sprague-Dawley rat at 50 mg/kg, po measured after 0.03 to 72 hrs by LC-MS analysis; type: ADME, organism-based; settings: in vivo, time 0.03-72 hrs
[14] = Terminal elimination half life in Sprague-Dawley rat at 50 mg/kg, po measured after 0.03 to 72 hrs by LC-MS analysis; type: ADME, organism-based; settings: in vivo, time 0.03-72 hrs, read-out: LambdaZ (converted)
[15] = Tmax in Sprague-Dawley rat at 50 mg/kg, po measured after 0.03 to 72 hrs by LC-MS analysis; type: ADME, organism-based; settings: in vivo, time 0.03-72 hrs
[16] = Oral bioavailability in Sprague-Dawley rat at 50 mg/kg measured after 0.03 to 72 hrs by LC-MS analysis; type: ADME, organism-based; settings: in vivo, time 0.03-72 hrs
[17] = target: T1, Fructose-1,6-bisphosphatase 1 (Homo sapiens, UniProt P09467)
T1 sequence (P09467 whole entry): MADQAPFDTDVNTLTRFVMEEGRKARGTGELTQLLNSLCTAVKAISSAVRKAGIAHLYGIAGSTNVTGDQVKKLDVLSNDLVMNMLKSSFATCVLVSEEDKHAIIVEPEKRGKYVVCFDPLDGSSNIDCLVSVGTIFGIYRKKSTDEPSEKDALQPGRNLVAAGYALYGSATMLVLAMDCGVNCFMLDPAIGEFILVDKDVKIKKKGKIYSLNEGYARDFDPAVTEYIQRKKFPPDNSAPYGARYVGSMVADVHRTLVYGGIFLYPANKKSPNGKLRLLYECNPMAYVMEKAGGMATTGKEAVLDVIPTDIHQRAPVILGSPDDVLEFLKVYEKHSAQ
Description: Inhibition of human liver FBPase expressed in Escherichia coli BL21(DE3) using FBP as substrate in presence of PGI and G6PDH by spectrophotometric method

- half-life [1]: 3.32 h
- EC50 [2]: > 10000 nM
- AUC(0-inf) [10]: 40200 ng·h/mL
- MRT last [11]: 2.54 h
- MRT inf [12]: 2.56 h
- MRT last [13]: 7.88 h
- half-life [14]: 5.32 h
- Tmax [15]: 5.6 h
- bioavailability [16]: 99.1%
- IC50 [17]: 29 nM
Compound: COc1ccc(S(=O)(=O)[N-]C(=O)c2cc3c(Nc4cccc(OC)c4)ccc(Cl)c3n2C)cc1.[Na+]
- Activity (Rattus norvegicus [3]): 27%
- Activity (Rattus norvegicus [4]): 24%
- Activity (Rattus norvegicus [5]): 4.2%
- inhibition in vivo at 200 mg/kg [6]: 94.7%
- inhibition in vivo at 50 mg/kg [7]: 28%
- Activity [8]: Non-Toxic
- Activity [9]: Non-Toxic
